Laboratory results from ChEMBL document CHEMBL1201862, “PubChem BioAssay data set” (2004).
Active and inactive are the calls of the source.

Columns and labels:
[1] = Counterscreen for activators of the function of SWI/SNF related, matrix associated, actin dependent regulator of chromatin, subfamily a, member 2 (SMARCA2, BRM): Luminescence-based cell-based high throughput dose response assay to identify non-selective compounds using the VP16 reporter assay.; assay type: functional
SN12K1 = assay: cells; assay type: functional; settings: Homo sapiens
cells = assay type: functional, cell-based
[2] = molecular target: SWI/SNF-related matrix-associated actin-dependent regulator of chromatin subfamily A member 2 (Homo sapiens, UniProt P51531); assay: Luminescence-based cell-based high throughput dose response assay to identify activators of the function of SWI/SNF related, matrix associated, actin dependent regulator of chromatin, subfamily a, member 2 (SMARCA2, BRM).; assay type: functional
P388 = assay: cells; assay type: functional; settings: Mus musculus
P388/ADR = assay: cells; assay type: functional; settings: Mus musculus
[3] = molecular target: T1, Nuclear receptor subfamily 0 group B member 1 (Homo sapiens, UniProt P51843); assay type: functional, cell-based;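 note: HEK293T cells transfected with SF-1 and DAX-1 plus StAR promoter luciferase reporter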
T1 sequence (P51843 whole entry): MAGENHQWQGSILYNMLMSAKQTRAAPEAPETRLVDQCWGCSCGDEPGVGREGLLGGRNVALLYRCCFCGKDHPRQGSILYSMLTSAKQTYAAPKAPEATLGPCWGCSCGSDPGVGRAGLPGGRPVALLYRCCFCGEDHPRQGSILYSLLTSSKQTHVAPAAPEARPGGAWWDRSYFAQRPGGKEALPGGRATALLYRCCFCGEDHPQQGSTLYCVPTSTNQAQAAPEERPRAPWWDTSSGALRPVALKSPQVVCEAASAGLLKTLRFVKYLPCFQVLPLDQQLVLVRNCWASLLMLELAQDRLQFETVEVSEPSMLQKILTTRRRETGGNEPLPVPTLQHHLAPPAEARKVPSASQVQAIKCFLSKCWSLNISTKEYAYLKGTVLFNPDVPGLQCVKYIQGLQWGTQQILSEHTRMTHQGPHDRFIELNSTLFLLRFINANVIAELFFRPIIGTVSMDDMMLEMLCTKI

[4] = CMV-driven luciferase expression suppression in HEK293 – cell-based, luminescence, dry powder, counter-screen for Pax8 inhibitor project, dose response (AID 743020); assay type: functional
[5] = OVCAR-3 cell viability loss – plate reader, dry powder samples, PAX8 inhibitor project, dose response (AID 743044); assay type: functional, cell-based
Paired box protein Pax-8 = Paired box protein Pax-8 (Homo sapiens, UniProt Q06710); assay: PAX8 transcriptional activity inhibition in RMG-I – RMG-I cells, luciferase, cherry-pick, dose response (AID 687027); assay type: functional, cell-based;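 note: luciferase reporter driven by Pax8 target thyroperoxidase promoter measured by SteadyGlo luminescence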
Plasmodium falciparum = assay: antimalarial activity against intraerythrocytic 3D7 parasites – 3D7 strain, red blood cells, SYBR Green, cherry-picked, dose response (AID 652047); assay type: functional
[6] = OVCAR8 cell viability loss – plate reader, dry powder samples, PAX8 project, dose response (AID 743197); assay type: functional, cell-based; settings: OVCAR-8
[7] = IGROV1 cell killing – plate reader, dry powder samples, PAX8 inhibitor project, dose response (AID 743043); assay type: functional, cell-based; settings: IGROV-1
[8] = viability loss in LCL cells – cell-based, plate reader, dry powder, set 2, cytotoxicity control, dose response (AID 624367); assay type: functional
Protein Wnt-3a = Protein Wnt-3a (Mus musculus, UniProt P27467); assay: SAR analysis of small molecule antagonists of Gli-SUFU in a Wnt3a luminescent reporter assay.; assay type: functional
[9] = viability loss in HepG2 hepatoma cells – cell-based, cherry-picks, set 5, cytotoxicity control, dose response (AID 1053118); assay type: functional

Chain of Paired box protein Pax-8 (Q06710 whole entry): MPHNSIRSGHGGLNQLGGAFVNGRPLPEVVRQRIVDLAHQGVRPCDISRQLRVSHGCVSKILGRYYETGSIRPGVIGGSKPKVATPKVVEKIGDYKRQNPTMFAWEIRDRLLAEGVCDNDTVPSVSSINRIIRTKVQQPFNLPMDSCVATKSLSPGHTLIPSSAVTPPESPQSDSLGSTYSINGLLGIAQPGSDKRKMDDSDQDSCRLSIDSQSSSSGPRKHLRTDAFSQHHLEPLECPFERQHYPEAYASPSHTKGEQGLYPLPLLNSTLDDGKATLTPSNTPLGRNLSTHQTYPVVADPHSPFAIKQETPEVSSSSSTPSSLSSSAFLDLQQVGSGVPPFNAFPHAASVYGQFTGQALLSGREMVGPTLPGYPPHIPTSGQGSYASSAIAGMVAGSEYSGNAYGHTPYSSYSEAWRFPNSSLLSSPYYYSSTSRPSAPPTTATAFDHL
Chain of Protein Wnt-3a (P27467 whole entry): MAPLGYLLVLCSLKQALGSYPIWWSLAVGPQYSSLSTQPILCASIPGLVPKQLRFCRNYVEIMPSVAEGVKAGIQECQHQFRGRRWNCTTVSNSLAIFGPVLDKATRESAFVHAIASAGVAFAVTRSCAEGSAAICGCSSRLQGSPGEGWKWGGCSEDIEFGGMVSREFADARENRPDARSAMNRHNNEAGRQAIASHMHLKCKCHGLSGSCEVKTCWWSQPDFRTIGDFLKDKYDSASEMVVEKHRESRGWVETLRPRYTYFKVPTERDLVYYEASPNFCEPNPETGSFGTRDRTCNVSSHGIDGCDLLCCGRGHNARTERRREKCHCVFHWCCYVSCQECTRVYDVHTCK
Chain of SWI/SNF-related matrix-associated actin-dependent regulator of chromatin subfamily A member 2 (P51531 whole entry): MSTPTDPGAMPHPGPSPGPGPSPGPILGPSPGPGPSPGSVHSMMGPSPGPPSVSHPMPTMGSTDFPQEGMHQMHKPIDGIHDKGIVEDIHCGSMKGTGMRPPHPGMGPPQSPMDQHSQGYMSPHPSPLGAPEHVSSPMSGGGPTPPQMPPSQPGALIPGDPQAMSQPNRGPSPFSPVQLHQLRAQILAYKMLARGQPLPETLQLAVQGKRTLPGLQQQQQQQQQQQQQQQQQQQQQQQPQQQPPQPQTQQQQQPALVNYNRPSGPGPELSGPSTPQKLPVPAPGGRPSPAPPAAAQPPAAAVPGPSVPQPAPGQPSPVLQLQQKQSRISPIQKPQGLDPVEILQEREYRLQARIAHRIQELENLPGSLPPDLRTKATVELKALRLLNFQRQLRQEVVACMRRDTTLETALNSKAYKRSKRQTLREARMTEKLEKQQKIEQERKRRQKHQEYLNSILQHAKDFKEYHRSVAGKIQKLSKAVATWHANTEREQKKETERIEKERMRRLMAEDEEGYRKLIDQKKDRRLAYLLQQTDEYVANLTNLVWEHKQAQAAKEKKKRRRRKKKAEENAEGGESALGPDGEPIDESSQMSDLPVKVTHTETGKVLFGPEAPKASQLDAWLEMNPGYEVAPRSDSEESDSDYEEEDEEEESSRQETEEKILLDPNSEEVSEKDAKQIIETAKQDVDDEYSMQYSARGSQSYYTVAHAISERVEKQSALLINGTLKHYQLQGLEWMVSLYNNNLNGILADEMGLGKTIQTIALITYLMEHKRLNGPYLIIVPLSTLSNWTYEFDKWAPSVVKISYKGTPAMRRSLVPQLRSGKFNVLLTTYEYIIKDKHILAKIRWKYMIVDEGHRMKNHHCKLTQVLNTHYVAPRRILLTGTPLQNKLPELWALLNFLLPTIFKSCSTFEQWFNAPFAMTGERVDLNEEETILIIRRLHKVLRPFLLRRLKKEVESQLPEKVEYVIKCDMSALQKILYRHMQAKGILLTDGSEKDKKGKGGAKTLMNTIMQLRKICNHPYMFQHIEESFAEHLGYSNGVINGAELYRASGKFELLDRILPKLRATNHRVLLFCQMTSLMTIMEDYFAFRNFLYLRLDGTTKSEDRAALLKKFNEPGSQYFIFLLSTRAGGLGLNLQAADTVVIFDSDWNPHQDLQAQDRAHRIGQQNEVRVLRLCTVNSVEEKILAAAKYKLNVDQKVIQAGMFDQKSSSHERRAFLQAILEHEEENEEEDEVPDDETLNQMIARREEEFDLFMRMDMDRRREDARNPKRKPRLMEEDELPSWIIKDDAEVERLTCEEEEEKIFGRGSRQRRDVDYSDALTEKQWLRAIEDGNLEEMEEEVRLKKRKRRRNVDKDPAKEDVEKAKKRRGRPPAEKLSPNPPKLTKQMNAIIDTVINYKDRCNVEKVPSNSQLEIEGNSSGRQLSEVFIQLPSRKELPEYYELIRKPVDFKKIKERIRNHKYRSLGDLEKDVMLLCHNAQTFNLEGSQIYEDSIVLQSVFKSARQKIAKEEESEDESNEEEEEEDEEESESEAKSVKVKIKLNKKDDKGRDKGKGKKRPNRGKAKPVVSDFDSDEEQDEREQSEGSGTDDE

In the case of `Nc1ccc(S(=O)(=O)Nc2cnc3c(Cl)cccc3n2)cc1` [CHLORSULFAQUINOXALINE], the EC50 [1] is reported as > 91.2 µM (inactive), the GI50 (SN12K1) is reported as 117 µM (inactive) and the IC50 (cells) is reported as > 67.5 µM (inactive). For the same compound, the EC50 [2] was > 91.2 µM (inactive), the GI50 (P388) was 87.1 µM (inactive) and the GI50 (P388/ADR) was 128 µM (inactive). For the same compound, the IC50 [3] was > 67.5 µM (inactive).
With `C[C@@H]1CN([C@H](C)CO)C(=O)c2cc(NC(=O)Nc3ccc(F)cc3)ccc2O[C@@H](C)CCCCO[C@H]1CN(C)Cc1ccc(C(F)(F)F)cc1` the AC50 [4] was 37.9 µM (active), the AC50 [5] was 15.8 µM (active) and the AC50 (Paired box protein Pax-8) was 4.13 µM (active).
`CCCc1cc(C(N)=O)c(NC(=O)c2cc(C)on2)s1` showed an AbsAC35 (Plasmodium falciparum) of 70.04 µM.
In the case of `Cc1noc(C)c1S(=O)(=O)Nc1ccc2c(c1)C(=O)N([C@H](C)CO)C[C@@H](C)[C@@H](CN(C)Cc1ccc(C(F)(F)F)cc1)OCCCC[C@H](C)O2`, the AC50 [5] is reported as 28 µM (active), the AC50 [6] is reported as 46.4 µM (active) and the AC50 [7] is reported as 47.1 µM (active). The AbsAC35 [8] was 47.16 µM and the AC50 (Paired box protein Pax-8) was 8.19 µM (active).
With `CCCCN(C)c1cc(NC(=O)c2ccccc2)ncn1` the IC50 (Protein Wnt-3a) was > 21.8 µM (inactive).
With `COCC(=O)Nc1ccc2c(c1)C(=O)N(C)[C@@H]1CC[C@H](CC(=O)NCc3ccccc3Cl)O[C@H]1CO2` the AC50 [9] was > 52 µM (inactive).
